Measured values published in patent publication US6414036B1, “Composition for treatment of infections of humans and animals” (Van Beek Global/Ninkov LLC, priority 1999, dated 2002).

System: microorganism culture
Assay: Comparative testing: time to death of the culture after contact
Assay type: cell-based
Experimental: Isopropyl-o-cresol (95% purity) was obtained as described in Examples I and 2. A 50% solution of isopropyl-o-cresol was prepared by combining 50 grams of isopropyl-o-cresol with […] citric and propionic acid.
An antimicrobial compound containing isopropyl-o-cresol was prepared as described in Examples 3 and 4.
Each compound was administered to a culture of […]. Cell death was observed by monitoring whether or not the cells multiplied.
For example, when the microorganism culture was contacted with isopropyl-o-cresol alone the cells died within 6-8 hours after contact. When the microorganism culture was contacted with isopropyl-o-cresol combined with an organic acid to form a solution (without chemical modification of either species), the microorganisms died within 3-4 hours after exposure. When the microorganism culture was contacted with an antimicrobial compound containing isopropyl-o-cresol reacted with propionic and citric acids (50:50), the organisms died within 5-10 minutes after being contacted with the antimicrobial compound.

## Cc1ccc(C(C)C)cc1O [isopropyl-o-cresol, 5-isopropyl-2-methylphenol]
  time within which the cells died after contact: 6 to 8 h

## CC(C)c1cc(CC(=O)O)cc(O)c1OC(=O)C(O)(CC(=O)O)CC(=O)O [3-{[4-(carboxymethyl)-2-hydroxy-6-isopropylphenoxy]carbonyl}-3-hydroxypentanedioic acid]
  time within which the organisms died after contact: 5 to 10 min
